From patent US20170114025A1, “METHODS FOR INHIBITING NECROPTOSIS” (Catalyst Therapeutics Pty Ltd, priority 2014, published 2017)
pIC50: −log10 of the molar value. Where two headings read alike, the source gives them in different places.

Key:
[1] = system: wild type MDFs (mouse dermal fibroblasts); experiment: Cell death assay, TSQ-induced necroptosis in MDFs (PI, flow cytometry); assay type: cell-based; settings: 24 h
Source text: (§1) Mouse dermal fibroblasts (MDFs) were isolated from three MlkI^−/− mice and three congenic wild type mice and then immortalized by SV40 large T antigen to generate three biologically independent cell lines, as described in Murphy J M, et al. (2013), Immunity 39(3):443-453. Immortalized MDFs were similarly prepared from three Ripk3^−/− mice and congenic wild type mice. MDFs and HEK293T were maintained in Dulbecco's modified Eagle's medium (DMEM) supplemented with 8-10% v/v fetal calf serum (FCS), and 5 μg/mL puromycin for lines stably transduced with inducible expression constructs for MLKL. U937 cells were cultured in RPMI1640 supplemented with 8% v/v FCS. Cell death assays were carried out in 24 well plates, seeding 1×10^5 cells per well. Cells attached over 4 h in the presence of 10 ng/mL doxycycline or 20 ng/mL were then treated with assorted combinations of Necrostatin (50 μM) and Q-VD-OPh (5 μM) 30 min prior to addition of TNF (100 ng/mL) and Smac mimetic (500 nM). After 24 h for MDF cells or 48 h for U937 cells, cells were harvested and PI positive cells (1 μg/mL) quantified using a BD FACSCalibur flow cytometer.

[2] = target: T1, human MLKL(190-471) pseudokinase domain (Homo sapiens, UniProt Q8NB16); experiment: STD NMR nucleotide competition, human MLKL; assay type: binding; set-up: His6 (pFastBac HTb, TEV-cleavable) (N, cleaved yes); made in house; host or cells: Sf21 insect cells; settings: 200 μM compound, 200 μM nucleotide, 2 μM human MLKL(190-471)
T1 sequence (Q8NB16 190-471): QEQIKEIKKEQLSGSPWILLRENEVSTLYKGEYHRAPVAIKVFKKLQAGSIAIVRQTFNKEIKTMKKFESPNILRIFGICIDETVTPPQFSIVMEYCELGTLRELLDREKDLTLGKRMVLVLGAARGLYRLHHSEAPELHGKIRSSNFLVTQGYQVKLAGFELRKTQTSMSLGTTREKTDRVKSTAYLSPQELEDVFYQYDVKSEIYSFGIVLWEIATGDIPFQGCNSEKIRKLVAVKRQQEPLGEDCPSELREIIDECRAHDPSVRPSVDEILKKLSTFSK
Description: Nucleotides were dissolved in NMR buffer (20 mM HEPES, pH 7.5, 200 mM NaCl, 90% D2O, 10% H2O) at a final concentration of 200 μM in each sample of STD experiments. Three different samples were prepared for each nucleotide: (1) ATP or ADP with protein buffer added as equivalent volume of protein containing samples (2) ATP or ADP with MLKL pseudokinase domain at a final concentration of 2 μM (3) ATP or ADP with MLKL pseudokinase domain (2 μM) with test compound at 200 μM. […] Saturation of the protein resonances was achieved by a 4 s train of Gaussian pulses centred at −0.5 ppm. For the reference spectra, a similar saturation pulse was applied at a frequency centred 20,000 Hz off-resonance. A 15 ms T2-spin-lock period was employed before acquisition to allow the residual protein signal to decay. NMR data were processed in TOPSPIN version 3.2 (Bruker BioSpin).

recombinant RIPK3 = target: T2, recombinant RIPK3 (Mus musculus, UniProt Q9QZL0); experiment: In vitro kinase assay; assay type: biochemical; settings: for concentrations leading to enhanced RIPK3-mediated phosphorylation of MLKL: mouse MLKL(179-464) as substrate
T2 construct: Recombinant mRIPK3 kinase domain was expressed and purified from Sf21 cells; made in house; host or cells: Sf21 cells
Description: In vitro kinase assays were performed as described previously in Murphy J M, et al. (2013), Immunity 39(3):443-453 and Cook W D, et al. (2014) Cell Death Diff. in press, but for the addition of either a DMSO control or up to 12.5 μM of test compound in 0.5% v/v final DMSO.

wild type U937 cells = experiment: Cell death assay, TSQ-induced necroptosis in U937 cells (PI, flow cytometry); assay type: cell-based, human; settings: for pIC50: Homo sapiens
Source text: as §1

transformed iBMDMs = experiment: Poly(I:C) experiment, RIP1-independent necroptosis; assay type: cell-based; settings: poly:IC 50 ug/ml, zVAD 25 uM, 48 hrs
Description: Cells were harvested after 48 hrs. Cell death was analysed via propidium iodide staining and flow cytometry.

[3] = system: U937 human histiocytic leukemia cell line; experiment: Screening for inhibition of TSQ induced necroptosis, 96 well plate format; assay type: cell-based; settings: U-937, 48 h
Description: Screening Compounds for Inhibition of TSQ Induced Necroptosis, 96 Well Plate Format.
U937 human histiocytic leukemia cell line.
35,000 per well in 120 μL of media, counted and plated immediately prior to addition of inhibitor and death stimuli. Final well volume of 150 μL after addition of compounds and death stimuli
HTRPMI (WEHI Media kitchen, contains L-Glutamine and penicillin, streptomycin)—supplemented with 7.4% v/v FCS (Gibco, Precision Plus. Lot #1221437)
48 hours following addition of compounds and death stimuli
DMSO Final Concentration (% v/v): 0.2%
Compounds that are in the Death Stimulation Cocktail and their Final Concentrations: • hTNF-Fc (100 ng/ml)—produced by Silke lab, WEHI • Compound A (500 nM)—Smac mimetic, Tetralogic • Q-VD-OPh (10 μM)—MP Biomedicals
Analysis: • Cells treated with PI staining (1 μg/ml) and analysed by flow cytometry
TNF; S: Smac mimetic; Q: Q-VD-OPh): TSQ treatment ensures that cells specifically undergo necroptotic cell death. TNF activates the TNF receptor, Smac mimetic direct the signal away from proinflammatory signaling and toward the RIP1/RIP3-mediated cell death pathways, and Q-VD-OPh ensures that the apoptotic response is blocked leaving only the programmed necrosis response. The compounds' activity (solution in DMSO) tested in this TSQ-induced assay is evaluated by measuring their ability to block cell death as measured by flow cytometry after PI staining.

wild-type MDFs = experiment: Toxicity of compound in wild-type MDFs; assay type: cell-based; settings: triplicate experiments
Source text: as §1

T2 sequence (Q9QZL0 22-292 limits assumed): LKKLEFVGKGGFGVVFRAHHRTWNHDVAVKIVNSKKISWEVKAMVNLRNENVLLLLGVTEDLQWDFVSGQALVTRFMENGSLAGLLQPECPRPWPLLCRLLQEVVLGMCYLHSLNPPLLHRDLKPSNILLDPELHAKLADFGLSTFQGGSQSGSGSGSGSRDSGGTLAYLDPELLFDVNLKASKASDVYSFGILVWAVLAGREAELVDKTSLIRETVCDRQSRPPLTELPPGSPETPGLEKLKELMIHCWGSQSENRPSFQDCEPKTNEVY

With `CN(c1ccc(NC(=O)Nc2ccc(OC(F)(F)F)cc2)cc1)c1ccnc(Nc2cccc(S(N)(=O)=O)c2)n1` [Compound 1, 3-((4-(methyl(4-(3-(4-(trifluoromethoxy)phenyl)ureido)phenyl)amino)pyrimidin-2-yl)amino)benzenesulfonamide] the pIC50 ([1]; Mus musculus, Fibroblast, read-out: IC50, rescue from TSQ-induced necroptosis) was ~6.30, the “cells rescued from TSQ-induced necroptosis” value ([1]; wt MDFs) was ~50% and the “competition with ATP and ADP for binding (STD NMR)” value [2] was “can compete with (i) ATP and (ii) ADP”. The “inhibition of RIPK3 catalytic activity and of RIPK3-mediated phosphorylation of MLKL” value (recombinant RIPK3; in vitro kinase assays) was “neither the catalytic activity of recombinant RIPK3 nor RIPK3-mediated phosphorylation of MLKL were inhibited”, the “concentrations leading to enhanced RIPK3-mediated phosphorylation of MLKL” value (recombinant RIPK3) was ≥ 10 µM and the “concentrations leading to enhanced RIPK3-mediated phosphorylation of MLKL” value (recombinant RIPK3; listed as compound 1) was > 5 µM. For the same molecule, the “impact on recombinant RIPK3 kinase activity” value (recombinant RIPK3; relative to DMSO control, up to 12.5 μM test compound) was “no impact”, the pIC50 (wild type U937 cells; U-937, 48 h, read-out: IC50, rescue from TSQ-induced necroptosis) was 7.00 to 7.30 and the pIC50 (wild type U937 cells; U-937, read-out: Inhibition of necroptosis (IC50)) was 7.00 to 7.30. For the same molecule, the “cells rescued from TSQ-induced necroptosis” value (wild type U937 cells; wt U937 cells, 48 h) was ~50%, the “inhibition of Poly(I:C) and zVAD induced necroptosis” value (transformed iBMDMs) was “inhibits Poly(I:C) and zVAD induced necroptosis” and the pIC50 ([3]; read-out: Cell based assay Average) was 7.16. The pIC50 ([3]; read-out: Cell based assay IC50) was 7.59 and the “concentrations at which toxicity induces death of wild-type MDFs” value (wild-type MDFs) was ≥ 5 µM.
